Results as given in patent publication US9493432B2, “Cyclopentylbenzamide derivatives and their use for the treatment of psychotic and cognitive disorders” (Takeda Pharmaceutical Company Limited, priority 2013, dated 2016).

Columns and labels:
human orexin receptor 2 = human orexin receptor 2 (Homo sapiens (Human), UniProt O43614); test: Orexin antagonist activity, intracellular calcium FLIPR assay (orexin receptor 2); type: cell-based; settings: RBL-2H3 cells stably expressing human orexin receptor 2; Ca2+ dye FLIPR; compound 15 minutes before orexin-A at approximately 80% maximal response; read-out: Human Orexin2R IC50
Procedure: (§1) Orexin antagonist activity was determined by measuring changes in intracellular calcium levels using a Ca^2+ sensitive fluorescent dye. The changes in fluorescent signal were monitored by Fluorescent Imaging Plate Reader (FLIPR™) technology available from Molecular Devices, LLC, U.S.A. Orexin mediated increases in intracellular Ca^2+ concentration were readily detected upon activation with orexin-A. Twenty-four hours prior to the assay, RBL-2H3 cells stably expressing either human orexin receptor 1 or human orexin receptor 2 were seeded in cell culture medium in black, clear-bottom 384-well plates (commercially available from Corning Inc., U.S.A.) and grown overnight at 37° C., 5% CO2. On the day of the assay, cell culture media was removed and cells were loaded with Calcium 5 Dye (commercially sold by Molecular Devices, LLC, U.S.A.) for 1 hour at 37° C., 5% CO2. Test compounds (at 10 point half log concentration response curves from 10 μM) were added to cells for 15 minutes prior to the addition of orexin-A to all wells, to achieve a final concentration that produces approximately an 80% maximal response. The IC50 values were determined from ten point concentration response curves. Curves were generated using the average of two wells for each data point.

human orexin receptor 1 = human orexin receptor 1 (Homo sapiens (Human), UniProt O43613); test: Orexin antagonist activity, intracellular calcium FLIPR assay (orexin receptor 1); type: cell-based; settings: RBL-2H3 cells stably expressing human orexin receptor 1; Ca2+ dye FLIPR; compound 15 minutes before orexin-A at approximately 80% maximal response; read-out: Human Orexin1R IC50
Procedure: as §1

Chain of human orexin receptor 1 (O43613 whole entry): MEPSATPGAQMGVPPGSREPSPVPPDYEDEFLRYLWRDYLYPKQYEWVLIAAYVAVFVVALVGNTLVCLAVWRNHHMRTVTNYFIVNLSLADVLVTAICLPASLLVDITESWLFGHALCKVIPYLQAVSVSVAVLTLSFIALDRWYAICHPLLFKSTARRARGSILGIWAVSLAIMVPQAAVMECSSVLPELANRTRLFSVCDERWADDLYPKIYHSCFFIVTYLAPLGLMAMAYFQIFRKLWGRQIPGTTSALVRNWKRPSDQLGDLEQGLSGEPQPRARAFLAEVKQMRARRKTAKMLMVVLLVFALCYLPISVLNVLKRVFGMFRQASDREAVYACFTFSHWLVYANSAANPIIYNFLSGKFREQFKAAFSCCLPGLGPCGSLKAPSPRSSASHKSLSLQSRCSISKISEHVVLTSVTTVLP
Chain of human orexin receptor 2 (O43614 whole entry): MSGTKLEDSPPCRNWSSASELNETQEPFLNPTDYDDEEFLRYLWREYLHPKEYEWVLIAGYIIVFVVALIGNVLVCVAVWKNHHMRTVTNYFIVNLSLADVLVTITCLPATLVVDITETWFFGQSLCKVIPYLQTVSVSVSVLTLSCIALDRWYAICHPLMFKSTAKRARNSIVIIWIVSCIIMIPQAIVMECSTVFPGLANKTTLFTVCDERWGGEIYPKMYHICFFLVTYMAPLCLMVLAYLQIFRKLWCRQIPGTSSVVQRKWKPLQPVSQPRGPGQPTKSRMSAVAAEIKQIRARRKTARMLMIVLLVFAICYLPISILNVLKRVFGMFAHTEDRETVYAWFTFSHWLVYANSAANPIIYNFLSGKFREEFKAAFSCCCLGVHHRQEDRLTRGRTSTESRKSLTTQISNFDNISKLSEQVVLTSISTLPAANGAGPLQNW

| Structure (SMILES) | IC50 (human orexin receptor 2) | IC50 (human orexin receptor 1) |
| --- | --- | --- |
| COc1cccc(F)c1C(=O)N[C@H]1CCC[C@@H]1Nc1nc2ccc(F)cc2s1 [Example 46, 2-Fluoro-N-[(1S,2S)-2-[(6-fluoro-1,3-benzothiazol-2-yl)amino]cyclopentyl]-6-methoxybenzamide] | 6300 nM | 110 nM |
| O=C(N[C@H]1CCC[C@@H]1Nc1nc2ccc(F)cc2s1)c1c(F)cccc1F [Example 47, 2,6-Difluoro-N-[(1S,2S)-2-[(6-fluoro-1,3-benzothiazol-2-yl)amino]-cyclopentyl]benzamide] | > 10000 nM | 150 nM |
| O=C(N[C@H]1CCC[C@@H]1Nc1nc2ccc(F)cc2s1)c1ccccc1F [Example 48, 2-Fluoro-N-[(1S,2S)-2-[(6-fluoro-1,3-benzothiazol-2-yl)amino]cyclopentyl]-benzamide] | 3700 nM | 160 nM |
| CCOc1ccccc1C(=O)N[C@H]1CCC[C@@H]1Nc1nc2ccc(F)cc2s1 [Example 49, 2-Ethoxy-N-[(1S,2S)-2-[(6-fluoro-1,3-benzothiazol-2-yl)amino]cyclopentyl]-benzamide] | 1400 nM | 190 nM |
| COc1ccccc1C(=O)N[C@H]1CCC[C@@H]1Nc1nc2ccc(F)cc2s1 [Example 50, N-[(1S,2S)-2-[(6-Fluoro-1,3-benzothiazol-2-yl)amino]cyclopentyl]-2-methoxybenzamide] | 3400 nM | 190 nM |
| COc1ccc(F)cc1C(=O)N[C@H]1CCC[C@@H]1Nc1nc2ccc(F)cc2s1 [Example 53, 5-Fluoro-N-[(1S,2S)-2-[(6-fluoro-1,3-benzothiazol-2-yl)amino]cyclopentyl]-2-methoxybenzamide] | 3300 nM | 280 nM |
| COc1c(F)cccc1C(=O)N[C@H]1CCC[C@@H]1Nc1nc2ccc(F)cc2s1 [Example 54, 3-Fluoro-N-[(1S,2S)-2-[(6-fluoro-1,3-benzothiazol-2-yl)amino]cyclopentyl]-2-methoxybenzamide] | 3500 nM | 310 nM |
| O=C(N[C@H]1CCC[C@@H]1Nc1nc2ccc(F)cc2s1)c1ccccc1-n1nccn1 [Example 59, N-[(1S,2S)-2-[(6-Fluoro-1,3-benzothiazol-2-yl)amino]cyclopentyl]-2-(2H-1,2,3-triazol-2-yl)benzamide] | 6700 nM | 11 nM |
| Cc1ccc(-n2nccn2)c(C(=O)NC2CCCC2Cc2cnc3ccccc3n2)c1 (centres unmarked) [Example 63, 5-Methyl-N-[2-(quinoxalin-2-ylmethyl)cyclopentyl]-2-(2H-1,2,3-triazol-2-yl)benzamide] | 4200 nM | 48 nM |
| COc1cccc(OC)c1C(=O)N[C@H]1CCC[C@@H]1Nc1nc2ccc(F)cc2o1 [Example 66, N-[(1S,2S)-2-[(6-Fluoro-1,3-benzoxazol-2-yl)amino]cyclopentyl]-2,6-dimethoxybenzamide] | > 10000 nM | 50 nM |
| COc1ccc(C)cc1C(=O)N[C@H]1CCC[C@@H]1Nc1nc2ccc(F)cc2s1 [Example 67, N-[(1S,2S)-2-[(6-Fluoro-1,3-benzothiazol-2-yl)amino]cyclopentyl]-2-methoxy-5-methylbenzamide] | 6500 nM | 110 nM |
| Cc1cccc(C)c1C(=O)N[C@H]1CCC[C@@H]1Nc1nc2ccc(F)cc2s1 [Example 68, N-[(1S,2S)-2-[(6-Fluoro-1,3-benzothiazol-2-yl)amino]cyclopentyl]-2,6-dimethylbenzamide] | > 10000 nM | 320 nM |
| O=C(N[C@H]1CCC[C@@H]1Nc1nc2ccc(F)cc2s1)c1c(F)cccc1-n1nccn1 [Example 69, 2-Fluoro-N-[(1S,2S)-2-[(6-fluoro-1,3-benzothiazol-2-yl)amino]cyclopentyl]-6-(2H-1,2,3-triazol-2-yl)benzamide] | 3200 nM | 15 nM |
| O=C(N[C@H]1CCC[C@@H]1Nc1nc2ccc(F)cc2s1)c1c(F)cccc1Cl [Example 70, 2-Chloro-6-fluoro-N-[(1S,2S)-2-[(6-fluoro-1,3-benzothiazol-2-yl)amino]cyclopentyl]benzamide] | > 10000 nM | 38 nM |
| O=C(N[C@H]1CCC[C@@H]1Nc1nc2ccc(F)cc2s1)c1c(Cl)cccc1-n1nccn1 [Example 71, 2-Chloro-N-[(1S,2S)-2-[(6-fluoro-1,3-benzothiazol-2-yl)amino]cyclopentyl]-6-(2H-1,2,3-triazol-2-yl)benzamide] | 4200 nM | 24 nM |
| Cc1nnc(-c2ccccc2C(=O)N[C@H]2CCC[C@@H]2Nc2nc3ccc(F)cc3s2)o1 [Example 72, N-[(1S,2S)-2-[(6-Fluoro-1,3-benzothiazol-2-yl)amino]cyclopentyl]-2-(5-methyl-1,3,4-oxadiazol-2-yl)benzamide] | > 10000 nM | 14 nM |

| Structure (SMILES) | IC50 (human orexin receptor 2) | IC50 (human orexin receptor 1) |
| --- | --- | --- |
| O=C(N[C@H]1CCC[C@@H]1Nc1nc2ccc(F)cc2s1)c1ccccc1-n1ccnn1 [Example 73, N-[(1S,2S)-2-[(6-Fluoro-1,3-benzothiazol-2-yl)amino]cyclopentyl]-2-(1H-1,2,3-triazol-1-yl)benzamide] | > 10000 nM | 35 nM |
| O=C(N[C@H]1CCC[C@@H]1Nc1nc2ccc(F)cc2s1)c1cc(Cl)ccc1-n1cccn1 [Example 74, 5-Chloro-N-[(1S,2S)-2-[(6-fluoro-1,3-benzothiazol-2-yl)amino]cyclopentyl]-2-(1H-pyrazol-1-yl)benzamide] | 2100 nM | 38 nM |
| CN(C(=O)c1c(F)cccc1F)[C@H]1CCC[C@@H]1Nc1nc2ccc(F)cc2s1 [Example 76, 2,6-Difluoro-N-[(1S,2S)-2-[(6-fluoro-1,3-benzothiazol-2-yl)amino]cyclopentyl]-N-methylbenzamide] | 2500 nM | 23 nM |
| COc1ccccc1C(=O)N(C)[C@H]1CCC[C@@H]1Nc1nc2ccc(F)cc2s1 [Example 77, N-[(1S,2S)-2-[(6-Fluoro-1,3-benzothiazol-2-yl)amino]cyclopentyl]-2-methoxy-N-methylbenzamide] | 1600 nM | 25 nM |
| CN(C(=O)c1ccccc1Cl)[C@H]1CCC[C@@H]1Nc1nc2ccc(F)cc2s1 [Example 78, 2-Chloro-N-[(1S,2S)-2-[(6-fluoro-1,3-benzothiazol-2-yl)amino]cyclopentyl]-N-methylbenzamide] | 2400 nM | 20 nM |
| CN(C(=O)c1ccccc1-n1cccn1)[C@H]1CCC[C@@H]1Nc1nc2ccc(F)cc2s1 [Example 79, N-[(1S,2S)-2-[(6-Fluoro-1,3-benzothiazol-2-yl)amino]cyclopentyl]-N-methyl-2-(1H-pyrazol-1-yl)benzamide] | 1100 nM | 1 nM |
| CN(C(=O)c1ccccc1-n1nccn1)[C@H]1CCC[C@@H]1Nc1nc2ccc(F)cc2s1 [Example 80, N-[(1S,2S)-2-[(6-Fluoro-1,3-benzothiazol-2-yl)amino]cyclopentyl]-N-methyl-2-(2H-1,2,3-triazol-2-yl)benzamide] | 650 nM | 1 nM |
| CN(C(=O)c1cc(F)ccc1-n1nccn1)[C@H]1CCC[C@@H]1Nc1nc2ccc(F)cc2s1 [Example 81, 5-Fluoro-N-[(1S,2S)-2-[(6-fluoro-1,3-benzothiazol-2-yl)amino]cyclopentyl]-N-methyl-2-(2H-1,2,3-triazol-2-yl)benzamide] | 840 nM | 1 nM |
| Cc1noc(-c2ccccc2C(=O)N(C)[C@H]2CCC[C@@H]2Nc2nc3ccc(F)cc3s2)n1 [Example 83, N-[(1S,2S)-2-[(6-Fluoro-1,3-benzothiazol-2-yl)amino]cyclopentyl]-N-methyl-2-(3-methyl-1,2,4-oxadiazol-5-yl)benzamide] | 1200 nM | 1 nM |
| COc1cccc(OC)c1C(=O)N[C@H]1CCC[C@@H]1Nc1nc2cc(F)ccc2s1 [Example 84, N-[(1S,2S)-2-[(5-Fluoro-1,3-benzothiazol-2-yl)amino]cyclopentyl]-2,6-dimethoxybenzamide] | > 10000 nM | 45 nM |
| COc1cccc(OC)c1C(=O)N[C@H]1CCC[C@@H]1Nc1nc2cc(F)ccc2o1 [Example 85, N-[(1S,2S)-2-[(5-Fluoro-1,3-benzoxazol-2-yl)amino]cyclopentyl]-2,6-dimethoxybenzamide] | > 10000 nM | 23 nM |
| O=C(N[C@H]1CCC[C@@H]1Nc1nc2ccccc2o1)c1ccccc1-n1nccn1 [Example 86, N-[(1S,2S)-2-[(1,3-Benzoxazol-2-yl)amino]cyclopentyl]-2-(2H-1,2,3-triazol-2-yl)benzamide] | > 10000 nM | 150 nM |
| O=C(N[C@H]1CCC[C@@H]1Nc1nc2ccc(F)cc2o1)c1ccccc1-n1nccn1 [Example 87, N-[(1S,2S)-2-[(6-Fluoro-1,3-benzoxazol-2-yl)amino]cyclopentyl]-2-(2H-1,2,3-triazol-2-yl)benzamide] | > 10000 nM | 21 nM |
| O=C(N[C@H]1CCC[C@@H]1Nc1nc2cc(F)ccc2o1)c1ccccc1-n1nccn1 [Example 88, N-[(1S,2S)-2-[(5-Fluoro-1,3-benzoxazol-2-yl)amino]cyclopentyl]-2-(2H-1,2,3-triazol-2-yl)benzamide] | 4200 nM | 21 nM |
| O=C(N[C@H]1CCC[C@@H]1Nc1nc2cc(Cl)ccc2s1)c1ccccc1-n1nccn1 [Example 89, N-[(1S,2S)-2-[(5-Chloro-1,3-benzothiazol-2-yl)amino]cyclopentyl]-2-(2H-1,2,3-triazol-2-yl)benzamide] | 5400 nM | 27 nM |
